Results published in patent US20150274661A1, “INDOL-AMIDE COMPOUNDS AS BETA-AMYLOID INHBITORS” (Hoffmann-La Roche Inc., priority 2012, published 2015).

Tested on: Aβ42 secretion
Test: Cellular γ-secretase assay (inhibition of Aβ42 secretion)
Format: cell-based
Settings: Homo sapiens, 22 h, human neuroglioma H4 cells overexpressing human APP, 22 hours incubation
Protocol: Cellular γ-Secretase Assay
The compounds were investigated in accordance with the test given hereinafter.
Human neuroglioma H4 cells overexpressing human APP were plated at 30,000 cells/well/200 μL in 96-well plates in IMDM media containing 10% FCS, […] Hygromycin B and incubated for 2 hours at 37° C., 5% CO2 prior to adding test compounds.
Compounds for testing were dissolved in 100% Me2SO yielding in a 10 mM stock solution. Typically 12 μL of these solutions were further diluted in 1000 μL of IMDM media (w/o FCS). Subsequent 1:1 dilutions gave a ten point dose response curve. 100 μL of each dilution was added to the cells in 96-well plates. Appropriate controls using vehicle only and reference compound were applied to this assay. The final concentration of Me2SO was 0.4%.
After incubation for 22 hours at 37° C., 5% CO2, 50 μL supernatant was transferred into round-bottom 96-well polypropylene plates for detection of Aβ42. 50 μL assay buffer (50 mM Tris/Cl, pH 7.4, 60 mM NaCl, 0.5% BSA, 1% TWEEN 20) was added to the wells followed by the addition of 100 μL of detection antibody (ruthenylated BAP15 0.0625 μg/mL in assay buffer). 50 μL of a premix of capture antibody (biotinylated 6E10 antibody, 1 μg/mL) and Streptavidin-coated magnetic beads (Dynal M-280, 0.125 mg/mL) were preincubated for 1 hour at room temperature before adding the assay plates. Assay plates were incubated on a shaker for 3 hours at room temperature and finally read in the Bioveris M8 Analyser according to the manufacturer's instructions (Bioveris).
IC50 values for inhibition of Aβ42 secretion were calculated by nonlinear regression fit analysis using XLfit 4.0 software (IDBS).

| EC50 | SMILES |
| --- | --- |
| 1910 nM | CCN1CCC(c2ccc3[nH]c(C(=O)Nc4ccc(F)cc4)cc3c2)CC1 [Example 42, 5-[1-Ethyl-piperidin-4-yl]-1H-indole-2-carboxylic acid (4-fluoro-phenyl)-amide] |
| 4360 nM | O=C(Nc1cccc(F)c1)c1cc2cc([C@@H]3CCCN(C4CC4)C3)ccc2[nH]1 [Example 117, (S)-5-(1-Cyclopropylpiperidin-3-yl)-N-(3-fluorophenyl)-1H-indole-2-carboxamide] |
| 402 nM | CN1CCC(c2ccc3[nH]c(C(=O)Nc4cccc(F)c4)cc3c2)C1 (centres unmarked) [Example 4, N-(3-Fluorophenyl)-5-(1-methylpyrrolidin-3-yl)-1H-indole-2-carboxamide] |
| 2950 nM | CC(C)N1CCC(Nc2ccc3[nH]c(C(=O)Nc4ccc(F)c(F)c4)cc3c2)CC1 [Example 65, 5-(1-Isopropyl-piperidin-4-ylamino)-1H-indole-2-carboxylic acid (3,4-difluoro-phenyl)-amide] |
| 1790 nM | CC(=O)N1CCC[C@@H](c2ccc3[nH]c(C(=O)Nc4cc(F)cc(F)c4)cc3c2)C1 [Example 113, 5-((S)-1-Acetyl-piperidin-3-yl)-1H-indole-2-carboxylic acid (3,5-difluoro-phenyl)-amide] |
| 403 nM | O=C(Nc1cc(F)cc(F)c1)c1cc2cc(C3CCCN(C(=O)C4CC4)C3)ccc2[nH]1 (centres unmarked) [Example 54, 5-(1-Cyclopropanecarbonyl-piperidin-3-yl)-1H-indole-2-carboxylic acid (3,5-difluoro-phenyl)-amide] |
| 727 nM | COCCN1CCCC(c2ccc3[nH]c(C(=O)Nc4cccc(F)c4)cc3c2)C1 (centres unmarked) [Example 66, N-(3-Fluorophenyl)-5-(1-(2-methoxyethyl)piperidin-3-yl)-1H-indole-2-carboxamide] |
| 1110 nM | O=C(Nc1cccc(F)c1)c1cc2cc(C3CCCN(C4CC4)C3)ccc2[nH]1 (centres unmarked) [Example 72, 5-(1-Cyclopropylpiperidin-3-yl)-N-(3-fluorophenyl)-1H-indole-2-carboxamide] |
| 990 nM | O=C(Nc1ccc(F)c(F)c1)c1cc2cc(C3CCCOC3)ccc2[nH]1 (centres unmarked) [Example 86, 5-(Tetrahydro-pyran-3-yl)-1H-indole-2-carboxylic acid (3,4-difluoro-phenyl)-amide] |
| 1580 nM | Cc1cccc(NC(=O)c2cc3cc(C4CCCN(C(C)C)C4)ccc3[nH]2)c1 (centres unmarked) [Example 33, 5-(1-Isopropyl-piperidin-3-yl)-1H-indole-2-carboxylic acid m-tolylamide] |
| 263 nM | CC(C)C(=O)N1CCCC(c2ccc3[nH]c(C(=O)Nc4cc(F)cc(F)c4)cc3c2)C1 (centres unmarked) [Example 51, 5-(1-Isobutyryl-piperidin-3-yl)-1H-indole-2-carboxylic acid (3,5-difluoro-phenyl)-amide] |
| 926 nM | Cc1cc(F)cc(NC(=O)c2cc3cc(C4CCCN(C(C)C)C4)ccc3[nH]2)c1 (centres unmarked) [Example 34, N-(3-Fluoro-5-methylphenyl)-5-(1-isopropylpiperidin-3-yl)-1H-indole-2-carboxamide] |
| 1150 nM | CC(C)N1CCCC(c2ccc3[nH]c(C(=O)Nc4ccc(F)cc4)cc3c2)C1 (centres unmarked) [Example 47, 5-(1-Isopropyl-piperidin-3-yl)-1H-indole-2-carboxylic acid (4-fluoro-phenyl)-amide] |
| 226 nM | CC(=O)N1CCC[C@H](c2ccc3[nH]c(C(=O)Nc4cc(F)cc(F)c4)cc3c2)C1 [Example 112, 5-((R)-1-Acetyl-piperidin-3-yl)-1H-indole-2-carboxylic acid (3,5-difluoro-phenyl)-amide] |
| 545 nM | O=C(Nc1cccc(F)c1)c1cc2cc([C@H]3CCCN(C4CC4)C3)ccc2[nH]1 [Example 116, (R)-5-(1-Cyclopropylpiperidin-3-yl)-N-(3-fluorophenyl)-1H-indole-2-carboxamide] |
| 373 nM | N#CCN1CCC(c2ccc3[nH]c(C(=O)Nc4cccc(F)c4)cc3c2)C1 (centres unmarked) [Example 16, 5-(1-(Cyanomethyl)pyrrolidin-3-yl)-N-(3-fluorophenyl)-1H-indole-2-carboxamide] |
| 148 nM | CS(=O)(=O)N1CCCC(c2ccc3[nH]c(C(=O)Nc4cc(F)cc(F)c4)cc3c2)C1 (centres unmarked) [Example 49, 5-(1-Methanesulfonyl-piperidin-3-yl)-1H-indole-2-carboxylic acid (3,5-difluoro-phenyl)-amide] |
| 273 nM | O=C(Nc1cccc(F)c1)c1cc2cc([C@H]3CCCN(CCO)C3)ccc2[nH]1 [Example 114, (R)—N-(3-Fluorophenyl)-5-(1-(2-hydroxyethyl)piperidin-3-yl)-1H-indole-2-carboxamide] |
| 657 nM | O=C(Nc1cccc(F)c1)c1cc2cc(C3CCCN(CCO)C3)ccc2[nH]1 (centres unmarked) [Example 67, N-(3-Fluorophenyl)-5-(1-(2-hydroxyethyl)piperidin-3-yl)-1H-indole-2-carboxamide] |

Further lines, the compound ahead of its results:

| SMILES | EC50 |
| --- | --- |
| CC(c1ccc2[nH]c(C(=O)Nc3cc(F)cc(F)c3)cc2c1)C1CCN(CC(F)(F)F)C1 (centres unmarked) [Example 96, N-(3,5-Difluorophenyl)-5-(1-(1-(2,2,2-trifluoroethyl)pyrrolidin-3-yl)ethyl)-1H-indole-2-carboxamide] | 7720 nM |
| O=C(Nc1ccc(F)cc1)c1cc2cc(C3CCN(C(=O)c4ccccc4)CC3)ccc2[nH]1 [Example 35, 5-(1-Benzoyl-piperidin-4-yl)-1H-indole-2-carboxylic acid (4-fluoro-phenyl)-amide] | 1390 nM |
| CC(CCN1CCCCC1)c1ccc2[nH]c(C(=O)Nc3cc(F)cc(F)c3)cc2c1 (centres unmarked) [Example 98, N-(3,5-Difluorophenyl)-5-(4-(piperidin-1-yl)butan-2-yl)-1H-indole-2-carboxamide] | 1040 nM |
| COC(=O)CN1CCC(c2ccc3[nH]c(C(=O)Nc4ccc(F)cc4)cc3c2)CC1 [Example 43, {4-[2-(4-Fluoro-phenylcarbamoyl)-1H-indol-5-yl]-piperidin-1-yl}-acetic acid methyl ester] | 2470 nM |
| CC(=O)N1CC[C@@H]([C@H](C)c2ccc3[nH]c(C(=O)Nc4cc(F)cc(F)c4)cc3c2)C1 [Example 122, 5-((S)-1-((S)-1-Acetylpyrrolidin-3-yl)ethyl)-N-(3,5-difluorophenyl)-1H-indole-2-carboxamide] | 2070 nM |
| C=CCCN1CCC(c2ccc3[nH]c(C(=O)Nc4cncc(F)c4)cc3c2)C1 (centres unmarked) [Example 78, 5-(1-(But-3-enyl)pyrrolidin-3-yl)-N-(5-fluoropyridin-3-yl)-1H-indole-2-carboxamide] | 927 nM |
| COC(=O)N1CCC(c2ccc3[nH]c(C(=O)Nc4ccc(F)cc4)cc3c2)CC1 [Example 41, 4-[2-(4-Fluoro-phenylcarbamoyl)-1H-indol-5-yl]-piperidine-1-carboxylic acid methyl ester] | 1910 nM |
| CC(C)N1CCC(c2ccc3[nH]c(C(=O)Nc4ccc(F)cc4)cc3c2)CC1 [Example 48, 5-(1-Isopropyl-piperidin-4-yl)-1H-indole-2-carboxylic acid (4-fluoro-phenyl)-amide] | 2510 nM |
| N#CCN1CCC(c2ccc3[nH]c(C(=O)Nc4cncc(F)c4)cc3c2)C1 (centres unmarked) [Example 80, 5-(1-Cyanomethyl-pyrrolidin-3-yl)-1H-indole-2-carboxylic acid (5-fluoro-pyridin-3-yl)-amide] | 942 nM |
| CCC1(c2ccc3[nH]c(C(=O)Nc4cc(F)cc(F)c4)cc3c2)CCC(=O)NC1=O (centres unmarked) [Example 19, 5-(3-Ethyl-2,6-dioxo-piperidin-3-yl)-1H-indole-2-carboxylic acid (3,5-difluoro-phenyl)-amide] | 2630 nM |
| CC(C)N1CCC(c2ccc3[nH]c(C(=O)Nc4cncc(F)c4)cc3c2)C1 (centres unmarked) [Example 76, N-(5-Fluoropyridin-3-yl)-5-(1-isopropylpyrrolidin-3-yl)-1H-indole-2-carboxamide] | 796 nM |
| CC(C)N1CCCC(c2ccc3[nH]c(C(=O)Nc4cc(F)cc(C#N)c4)cc3c2)C1 (centres unmarked) [Example 31, 5-(1-Isopropyl-piperidin-3-yl)-1H-indole-2-carboxylic acid (3-cyano-5-fluoro-phenyl)-amide] | 2380 nM |
| CC(C)N1CCC(c2ccc3[nH]c(C(=O)Nc4cccc(Cl)c4)cc3c2)CC1 [Example 23, 5-(1-Isopropyl-piperidin-4-yl)-1H-indole-2-carboxylic acid (3-chloro-phenyl)-amide] | 897 nM |
| CC(C)N1CC=C(c2ccc3[nH]c(C(=O)Nc4cc(F)cc(F)c4)cc3c2)CC1 [Example 87, 5-(1-Isopropyl-1,2,3,6-tetrahydro-pyridin-4-yl)-1H-indole-2-carboxylic acid (3,5-difluoro-phenyl)-amide] | 1300 nM |
| CC(c1ccc2[nH]c(C(=O)Nc3cc(F)cc(F)c3)cc2c1)C1CCN(CC#N)C1 (centres unmarked) [Example 94, 5-(1-(1-(Cyanomethyl)pyrrolidin-3-yl)ethyl)-N-(3,5-difluorophenyl)-1H-indole-2-carboxamide] | 1340 nM |

Same assay, conditions: human neuroglioma H4 cells overexpressing human APP, 22 hours incubation

| SMILES | EC50 |
| --- | --- |
| CN1CC[C@@H](c2ccc3[nH]c(C(=O)Nc4cc(F)cc(F)c4)cc3c2)C1 [Example 102, 5-((S)-1-Methyl-pyrrolidin-3-yl)-1H-indole-2-carboxylic acid (3,5-difluoro-phenyl)-amide] | 300 nM |
